Target: STAT3 (Homo sapiens, UniProt P40763)
Experiment: fluorescence polarization competition with 5-FAM-GpYLPQTV phosphopeptide
Assay type: binding

STAT3, sequence (P40763 2-770): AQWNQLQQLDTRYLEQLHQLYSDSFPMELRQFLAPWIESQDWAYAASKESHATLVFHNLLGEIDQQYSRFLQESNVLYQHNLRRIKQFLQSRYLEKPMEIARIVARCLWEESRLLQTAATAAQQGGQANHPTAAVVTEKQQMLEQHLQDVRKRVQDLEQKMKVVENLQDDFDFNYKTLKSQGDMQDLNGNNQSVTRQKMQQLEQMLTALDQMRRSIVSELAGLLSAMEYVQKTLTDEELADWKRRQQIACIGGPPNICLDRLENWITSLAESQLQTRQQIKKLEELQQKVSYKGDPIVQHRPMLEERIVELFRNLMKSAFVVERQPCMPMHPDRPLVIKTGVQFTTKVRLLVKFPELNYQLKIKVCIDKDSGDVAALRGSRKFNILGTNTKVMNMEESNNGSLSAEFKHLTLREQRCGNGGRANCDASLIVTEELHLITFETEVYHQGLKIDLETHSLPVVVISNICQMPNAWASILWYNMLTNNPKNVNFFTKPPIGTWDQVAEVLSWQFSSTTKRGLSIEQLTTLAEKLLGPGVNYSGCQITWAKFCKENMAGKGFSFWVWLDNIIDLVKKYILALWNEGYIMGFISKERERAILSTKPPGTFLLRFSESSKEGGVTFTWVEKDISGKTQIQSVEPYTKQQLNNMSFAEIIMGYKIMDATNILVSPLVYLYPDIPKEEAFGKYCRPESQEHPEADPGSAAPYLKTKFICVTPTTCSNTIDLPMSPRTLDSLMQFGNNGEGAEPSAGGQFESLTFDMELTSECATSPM

S3I-1757
IC50: 13.5 ± 0.5 µM

Reference: paper PMC4030628 (Cancer research, 2013)
